The test system of assay [1] is Staphylococcus aureus (strain alias LA-414M SPA t034). The assay is described as follows: Cefoxitin MIC testing with and without cell-free supernatant. Format: cell-based. The conditions noted are these: MRSA LA 414M, 0 mg/mL dried cell-free (cefoxitin only). The source says: (§1) Three methicillin resistant Staphylococci (MRS) strains were used in these experiments: 1) Staphylococcus pseudintermedius (strain alias C260 22-2011 dtqa), a clinical isolate from a dog skin infection; 2) Staphylococcus aureus (strain alias LA-414M SPA t034), a livestock-associated strain isolated from beef purchased from a grocery store in Charlottetown, PEI, Canada; and 3) Staphylococcus aureus (strain alias 81M SPA t008), isolated from poultry meat purchased from a grocery store in Charlottetown, PEI, Canada. All three MRS strains were provided by the Atlantic Veterinary College (AVC) at the University of Prince Edward Island. The methicillin-resistance of these strains was confirmed by AVC staff using an oxacillin disk diffusion method. The strains were originally cultured on sheep blood agar slants, and then transferred to lysogeny broth agar plates. Cefoxitin resuspended in methanol was used for antibiotic resistance testing, and growth was tested in two different media types, standard Lysogeny Broth and standard BBL™ Cation-Adjusted Mueller-Hinton Medium (Becton, Dickinson and Company). The minimum inhibitory concentrations (MICs) of the cefoxitin was determined for each strain in each respective medium in the presence and absence of the cell-free supernatant. Assays were performed according to the Clinical and Laboratory Standards Institute (CLSI) guidelines for MIC testing of Staphylococcal species [CLSI, 2015] as well as the European Committee for Antimicrobial Susceptibility Testing (EUCAST) of the European Society of Clinical Microbiology and Infectious Diseases [EUCAST, 2003].
(§2) The protocol for MIC testing was as follows. The cell-free supernatants were resuspended in the respective media and filter sterilized through a […] pore size filter. The required concentration of dried cell free supernatant was weighed and added at concentrations ranging from 0-60 mg/mL. Cefoxitin was added to obtain final concentrations ranging from 0-250 μg/mL. […] Following incubation, microplates were read at 600 nm using a microplate reader. […]

The test system of assay [2] is Staphylococcus pseudintermedius (strain alias C260 22-2011 dtqa). The assay is described as above. The class given is cell-based. The conditions noted are these: MSRP C260; Lysogeny Broth; 0 mg/mL dried cell-free (cefoxitin only).
Excerpt: as §1, §2

In assay [3] the test system is Staphylococcus aureus (strain alias 81M SPA t008). The experiment in a line: Cefoxitin MIC testing with and without cell-free supernatant or its size exclusion fractions. Format: cell-based.
Excerpt: as §1, §2

Assay [4] concerns HilA. The experiment in a line: qPCR of HilA down-regulation in Salmonella, reference gene 16S. Format: cell-based, Salmonella enteric typhimurium DT104. Conditions: individual synthetic biopeptides, 50 μg per assay. The source says: The cell-free supernatant was separated using Sephadex G75 resin. The samples were separated and collected into fractions: Fraction 1 (>163000 Da), Fraction 2 (163000-14500 Da), Fraction 3(14500-1300 Da), Fraction 4 (1300-110 Da), Fraction 5 (110-10 Da). The samples were collected and assayed by qPCR using Salmonella enteric typhimurium DT104 strain. The down-regulation of HilA was compared to the reference gene 16S.
The active fraction from G75 size exclusion chromatography was further separated using reverse phase chromatography. The fractions from the reverse phase: Fraction 1 (0-2 min), Fraction 2 (2-4 min), Fraction 3 (4-16 min), Fraction 4 (16-32 min), Fraction 5 (32-40 min), Fraction 6 (40-58 min). The fractions were dried and neutralized to remove acetonitrile and trifluoroacetic acid from the solvent. The dried fractions were assayed using the same qPCR assay conditions as above. The fractions were analyzed by de novo sequencing at the University of Guelph Advance Analytical center. The peptides from the active fractions of 6 batches were compared and common peptides from batches were deduced.

The test system of assay [5] is HylA. The conditions noted are these: individual synthetic biopeptides, 50 μg per assay; reference gene GapA.
Procedure: The La-5 cell-free supernatant used for these experiments was batch D4. […] Strain 1 alias UPEC99 and strain 2 alias UPEC804. The strains were cultured on LB agar. Two different media were tested LB and artificial urine medium.
The UPEC were grown for 4 hours in the presence of cell-free supernatant. The cells were harvested and the RNA was extracted. The RNA was treated with DNAse I to remove genomic DNA. The RNA was used as a template to make cDNA. The cDNA was assayed by qPCR and the gene expression was normalized to a reference gene and compared to a without cell-free media control.
The synthetic bio-peptides were analyzed at 50 μg per assay.

Experimental findings from US11912788B2, “Probiotic molecules for reducing pathogen virulence” (priority 2017, dated 2024) are described below.

As for `CO[C@@]1(NC(=O)Cc2cccs2)C(=O)N2C(C(=O)O)=C(COC(N)=O)CS[C@@H]21` [Cefoxitin], the “Range of Cefoxitin concentration to inhibition growth to O.D. < 0.1 (cefoxitin MIC)” value fell in the range of 30 to 40 µg/mL in assay [1] (Lysogeny Broth); 50 to 60 µg/mL in assay [1] (Mueller-Hinton Broth); 125 to 175 µg/mL in assay [2]; 75 to 125 µg/mL in assay [3] (MRSA 81M, Lysogeny Broth, 0 mg/mL dried cell-free (cefoxitin only)); 75 to 100 µg/mL in assay [3] (MRSA 81M, Mueller-Hinton Broth, 0 mg/mL dried cell-free (cefoxitin only)); 60 to 75 µg/mL in assay [3] (Table 4, Staphylococcus aureus 81M, Untreated (0 mg/mL), cefoxitin only).
For the molecule CVLPPK, the “Fold down-regulation HilA” value in assay [4] stood at 3.75 Fold. In addition, the “Fold down-regulation HylA” value in assay [5] is reported as 3.20 Fold.
In the same order, the values of HLLPLP are 2.93 Fold and 2.64 Fold.
Regarding LKPTPEGD, the “Fold down-regulation HilA” value in assay [4] came to 11.08 Fold. In addition, the “Fold down-regulation HylA” value in assay [5] was determined as 4.69 Fold.
MALPPK: in assay [4], the “Fold down-regulation HilA” value is listed as 19.56 Fold. Further, in assay [5], the “Fold down-regulation HylA” value came out at 9.06 Fold.
In the same order, the values of YPPGGP are 2.93 Fold and 3.56 Fold.
In the same order, the values of YPVEPF are 0.68 Fold and 1.03 Fold.
